{"source": "patent US11311520B2", "about": "“Substituted dihydroimidazopyridinediones as MKNK1 and MKNK2 inhibitors” (Bayer Pharma Aktiengesellschaft, priority 2017, dated 2022)", "note": "Where a name gives a salt, the structure may show the parent alone.", "data": [{"target": "human full-length MKNK1 (Homo sapiens (Human), UniProt Q9BUB5, T344D)", "sequence (Q9BUB5 other isoform, or with tags, fused parts or gaps T344D)": "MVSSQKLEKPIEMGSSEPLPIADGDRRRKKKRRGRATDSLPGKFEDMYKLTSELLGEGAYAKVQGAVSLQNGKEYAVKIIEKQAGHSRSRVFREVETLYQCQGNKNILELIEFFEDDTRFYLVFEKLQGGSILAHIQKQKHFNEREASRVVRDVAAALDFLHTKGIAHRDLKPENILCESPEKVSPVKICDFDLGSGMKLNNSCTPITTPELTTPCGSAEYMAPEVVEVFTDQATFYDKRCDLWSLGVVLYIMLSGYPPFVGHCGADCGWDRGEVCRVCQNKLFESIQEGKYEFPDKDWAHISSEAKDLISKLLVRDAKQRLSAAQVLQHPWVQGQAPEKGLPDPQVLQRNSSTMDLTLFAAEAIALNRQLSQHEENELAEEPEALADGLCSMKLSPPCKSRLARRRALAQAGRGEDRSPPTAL", "assay": "MKNK1 kinase high ATP assay (TR-FRET)", "format": "biochemical", "conditions": "2 mM ATP, 15 min preincubation with enzyme, GST-MKNK1 (T344D)", "description": "(§1) MKNK1 Kinase High ATP Assay\n(§2) MKNK1-inhibitory activity at high ATP of compounds of the present invention after their preincubation with MKNK1 was quantified employing the TR-FRET-based MKNK1 high ATP assay as described in the following paragraphs.\n(§3) A recombinant fusion protein of Glutathione-S-Transferase (GST, N-terminally) and human full-length MKNK1 (amino acids 1-424 and T344D of accession number BAA 19885.1), expressed in insect cells using baculovirus expression system and purified via glutathione sepharose affinity chromatography, was purchased from Carna Biosciences (product no 02-145) and used as enzyme. As substrate for the kinase reaction the biotinylated peptide biotin-Ahx-IKKRKLTRRKSLKG (SEQ ID NO: 1) (C-terminus in amide form) was used, which can be purchased e.g. from the company Biosyntan (Berlin-Buch, Germany)\n(§4) For the assay 50 nL of a 100 fold concentrated solution of the test compound in DMSO was pipetted into a black low volume 384 well microtiter plate (Greiner Bio-One, Frickenhausen, Germany), 2 μL of a solution of MKNK1 in aqueous assay buffer [50 mM HEPES pH 7.5, 5 mM MgCl2, 1.0 mM dithiothreitol, 0.005% (v/v) Nonidet-P40 (Sigma)] was added and the mixture was incubated for […] at 22° C. to allow pre-binding of the test compounds to the enzyme before the start of the kinase reaction. Then the kinase reaction was started by the addition of 3 μL of a solution of adenosine-tri-phosphate (ATP, 3.3 mM=>final conc. in the 5 μL assay volume is 2 mM) and substrate (0.1 μM=>final conc. in the 5 μL assay volume is 0.06 μM) in assay buffer and the resulting mixture was incubated for a reaction time of 30 min at 22° C. The concentration of MKNK1 was adjusted depending of the activity of the enzyme lot and was chosen appropriate to have the assay in the linear range, typical concentrations were in the range of 0.003 μg/mL. The reaction was stopped by the addition of 5 μL of a solution of TR-FRET detection reagents (5 nM streptavidine-XL665 [Cisbio Bioassays, Codolet, France] and 1 nM anti-ribosomal protein S6 (pSer236)-antibody from Invitrogen [#44921G] and 1 nM LANCE EU-W1024 labeled ProteinG [Perkin-Elmer, product no. AD0071]) in an aqueous EDTA-solution (100 mM EDTA, 0.1% (w/v) bovine serum albumin in 50 mM HEPES pH 7.5).\n(§5) The resulting mixture was incubated for 1 h at 22° C. to allow the formation of complex between the phosphorylated biotinylated peptide and the detection reagents. Subsequently the amount of phosphorylated substrate was evaluated by measurement of the resonance energy transfer from the Eu-chelate to the streptavidine-XL. Therefore, the fluorescence emissions at 620 nm and 665 nm after excitation at 350 nm were measured in a TR-FRET reader, e.g. a Rubystar (BMG Labtechnologies, Offenburg, Germany) or a Viewlux (Perkin-Elmer). The ratio of the emissions at 665 nm and at […] was taken as the measure for the amount of phosphorylated substrate. The data were normalised (enzyme reaction without inhibitor=0% inhibition, all other assay components but no enzyme=100% inhibition).", "units": {"IC50": "nM"}, "values": [{"smiles": "CCCNC(=O)Nc1nccc(Nc2cc(C)c3n(c2=O)C2(CCCCC2)NC3=O)n1", "note": "[Example 23, 1-{4-[(8′-Methyl-1′,5′-dioxo-1′,5′-dihydro-2′H-spiro[cyclohexane-1,3′-imidazo[1,5-a]pyridin]-6′-yl)amino]pyrimidin-2-yl}-3-propylurea]", "IC50": 337}, {"smiles": "Cc1cc(Nc2ncnc3[nH]cnc23)c(=O)n2c1C(=O)NC21CCCCC1", "note": "[Example 24, 8′-methyl-6′-(9H-purin-6-ylamino)-2′H-spiro[cyclohexane-1,3′-imidazo[1,5-a]pyridine]-1′,5′-dione]", "IC50": 1.5}, {"smiles": "Cc1cc(Nc2ncnc3sc(C(=O)NCCN(C)C)cc23)c(=O)n2c1C(=O)NC21CCCCC1", "note": "[Example 25, N-[2-(Dimethylamino)ethyl]-4-[(8′-methyl-1′,5′-dioxo-1′,5′-dihydro-2′H-spiro[cyclohexane-1,3′-imidazo[1,5-a]pyridin]-6′-yl)amino]thieno[2,3-d]pyrimidine-6-carboxamide]", "IC50": 1.9}, {"smiles": "Cc1cc(Nc2ncnc3sc(C(=O)N4CC(C#N)C4)cc23)c(=O)n2c1C(=O)NC21CCCCC1", "note": "[Example 26, 1-({4-[(8′-Methyl-1′,5′-dioxo-1′,5′-dihydro-2′H-spiro[cyclohexane-1,3′-imidazo[1,5-a]pyridin]-6′-yl)amino]thieno[2,3-d]pyrimidin-6-yl}carbonyl)azetidine-3-carbonitrile]", "IC50": 5}, {"smiles": "Cc1cc(Nc2ncnc3sc(C(=O)N4CC(NC(=O)OC(C)(C)C)C4)cc23)c(=O)n2c1C(=O)NC21CCCCC1", "note": "[Example 27, tert-Butyl [1-({4-[(8′-methyl-1′,5′-dioxo-1′,5′-dihydro-2′H-spiro[cyclohexane-1,3′-imidazo[1,5-a]pyridin]-6′-yl)amino]thieno[2,3-d]pyrimidin-6-yl}carbonyl)azetidin-3-yl]carbamate]", "IC50": 4}, {"smiles": "Cc1cc(Nc2ncnc3sc(C(=O)N4CC(N)C4)cc23)c(=O)n2c1C(=O)NC21CCCCC1", "note": "[Example 28, 6′-({6-[(3-Aminoazetidin-1-yl)carbonyl]thieno[2,3-d]pyrimidin-4-yl}amino)-8′-methyl-2′H-spiro[cyclohexane-1,3′-imidazo[1,5-a]pyridine]-1′,5′-dione]", "IC50": 0.6}, {"smiles": "Cc1cc(Nc2ncnc3sc(C(=O)N4CC[C@@H](N(C)C)C4)cc23)c(=O)n2c1C(=O)NC21CCCCC1", "note": "[Example 29, 6′-[(6-{[(3R)-3-(Dimethylamino)pyrrolidin-1-yl]carbonyl}thieno[2,3-d]pyrimidin-4-yl)amino]-8′-methyl-2′H-spiro[cyclohexane-1,3′-imidazo[1,5-a]pyridine]-1′,5′-dione]", "IC50": 2.9}, {"smiles": "Cc1cc(Nc2ncnc3sc(C(=O)N4CC[C@H](N(C)C)C4)cc23)c(=O)n2c1C(=O)NC21CCCCC1", "note": "[Example 30, 6′-[(6-{[(3S)-3-(Dimethylamino)pyrrolidin-1-yl]carbonyl}thieno[2,3-d]pyrimidin-4-yl)amino]-8′-methyl-2′H-spiro[cyclohexane-1,3′-imidazo[1,5-a]pyridine]-1′,5′-dione]", "IC50": 3.2}, {"smiles": "Cc1cc(Nc2ncnc3c2CN(C(=O)OC(C)(C)C)C3)c(=O)n2c1C(=O)NC21CCCCC1", "note": "[Example 35, tert-Butyl 4-[(8′-methyl-1′,5′-dioxo-1′,5′-dihydro-2′H-spiro[cyclohexane-1,3′-imidazo[1,5-a]pyridin]-6′-yl)amino]-5,7-dihydro-6H-pyrrolo[3,4-d]pyrimidine-6-carboxylate]", "IC50": 4.1}, {"smiles": "Cc1cc(Nc2ncnc3c2CNC3)c(=O)n2c1C(=O)NC21CCCCC1", "note": "[Example 36, 6′-(6,7-Dihydro-5H-pyrrolo[3,4-d]pyrimidin-4-ylamino)-8′-methyl-2′H-spiro[cyclohexane-1,3′-imidazo[1,5-a]pyridine]-1′,5′-dione]", "IC50": 19.1}, {"smiles": "Cc1cc(Nc2ncnc3nc(CC(F)(F)F)[nH]c23)c(=O)n2c1C(=O)NC21CCCCC1", "note": "[Example 37, 8′-Methyl-6′-{[8-(2,2,2-trifluoroethyl)-7H-purin-6-yl]amino}-2′H-spiro[cyclohexane-1,3′-imidazo[1,5-a]pyridine]-1′,5′-dione]", "IC50": 10.3}, {"smiles": "Cc1cc(Nc2ncnc3oc(C)c(C)c23)c(=O)n2c1C(=O)NC21CCCCC1", "note": "[Example 38, 6′-[(5,6-Dimethylfuro[2,3-d]pyrimidin-4-yl)amino]-8′-methyl-2′H-spiro[cyclohexane-1,3′-imidazo[1,5-a]pyridine]-1′,5′-dione]", "IC50": 79.9}, {"smiles": "Cc1cc(Nc2ncnc(NC(=O)C3CC3)n2)c(=O)n2c1C(=O)NC2(C)C", "note": "[Example 40, N-[4-[(3,3,8-Trimethyl-1,5-dioxo-1,2,3,5-tetrahydroimidazo[1,5-a]pyridin-6-yl)amino]-1,3,5-triazin-2-yl]cyclopropanecarboxamide]", "IC50": 20.7}, {"smiles": "Cc1cc(Nc2ncnc3cccc(F)c23)c(=O)n2c1C(=O)NC21CCCCC1", "note": "[Example 41, 6′-[(5-Fluoroquinazolin-4-yl)amino]-8′-methyl-2′H-spiro[cyclohexane-1,3′-imidazo[1,5-a]pyridine]-1′,5′-dione]", "IC50": 14}, {"smiles": "Cc1cc(Nc2ncnc3sc(C(=O)N4C[C@H]5C[C@@H]4CN5C)cc23)c(=O)n2c1C(=O)NC21CCCCC1", "note": "[Example 42, 8′-Methyl-6′-[(6-{[(1R,4R)-5-methyl-2,5-diazabicyclo[2.2.1]hept-2-yl]carbonyl}thieno[2,3-d]pyrimidin-4-yl)amino]-2′H-spiro[cyclohexane-1,3′-imidazo[1,5-a]pyridine]-1′,5′-dione]", "IC50": 1.9}, {"smiles": "Cc1cc(Nc2ncnc3sc(C(=O)N4C[C@@H]5C[C@H]4CN5C)cc23)c(=O)n2c1C(=O)NC21CCCCC1", "note": "[Example 43, 8′-Methyl-6′-[(6-{[(1S,4S)-5-methyl-2,5-diazabicyclo[2.2.1]hept-2-yl]carbonyl}thieno[2,3-d]pyrimidin-4-yl)amino]-2′H-spiro[cyclohexane-1,3′-imidazo[1,5-a]pyridine]-1′,5′-dione]", "IC50": 2.9}, {"smiles": "Cc1cc(Nc2ncnc3c2ncn3CCO)c(=O)n2c1C(=O)NC21CCCCC1", "note": "[Example 44, 6′-{[9-(2-Hydroxyethyl)-9H-purin-6-yl]amino}-8′-methyl-2′H-spiro[cyclohexane-1,3′-imidazo[1,5-a]pyridine]-1′,5′-dione]", "IC50": 465}, {"smiles": "CCOC(=O)Cn1cnc2c(Nc3cc(C)c4n(c3=O)C3(CCCCC3)NC4=O)ncnc21", "note": "[Example 45, Ethyl {6-[(8′-methyl-1′,5′-dioxo-1′,5′-dihydro-2′H-spiro[cyclohexane-1,3′-imidazo[1,5-a]pyridin]-6′-yl)amino]-9H-purin-9-yl}acetate]", "IC50": 603}, {"smiles": "Cc1cc(Nc2ncnc3ccc(Cl)cc23)c(=O)n2c1C(=O)NC21CCCCC1", "note": "[Example 46, 6′-[(6-Chloroquinazolin-4-yl)amino]-8′-methyl-2′H-spiro[cyclohexane-1,3′-imidazo[1,5-a]pyridine]-1′,5′-dione]", "IC50": 4.1}, {"smiles": "Cc1cc(Nc2ncnc3c2ncn3[C@H]2O[C@@H](CO)[C@H](O)[C@H]2O)c(=O)n2c1C(=O)NC21CCCCC1", "note": "[Example 47, N-[9-(beta-L-Arabinofuranosyl)-9H-purin-6-yl]-8′-methyl-1′,5′-dioxo-1′,5′-dihydro-2′H-spiro[cyclohexane-1,3′-imidazo[1,5-a]pyridin]-6′-amine]", "IC50": 47.2}]}, {"target": "human full-length MKNK1 (Homo sapiens (Human), UniProt Q9BUB5, T344D)", "assay": "MKNK1 kinase high ATP assay (TR-FRET)", "format": "biochemical", "conditions": "2 mM ATP, 15 min preincubation with enzyme, GST-MKNK1 (T344D), hydrochloride", "description": "as §1, §2, §3, §4, §5", "units": {"IC50": "nM"}, "values": [{"smiles": "Cc1cc(Nc2ncnc3sccc23)c(=O)n2c1C(=O)NC21CCCCC1", "note": "[Example 31, 8′-Methyl-6′-(thieno[2,3-d]pyrimidin-4-ylamino)-2′H-spiro[cyclohexane-1,3′-imidazo[1,5-a]pyridine]-1′,5′-dione hydrochloride]", "IC50": 16.8}, {"smiles": "Cc1cc(Nc2ncnc3sc(C(=O)N(C)C)cc23)c(=O)n2c1C(=O)NC21CCCCC1", "note": "[Example 33, N,N-Dimethyl-4-[(8′-methyl-1′,5′-dioxo-1′,5′-dihydro-2′H-spiro[cyclohexane-1,3′-imidazo[1,5-a]pyridin]-6′-yl)amino]thieno[2,3-d]pyrimidine-6-carboxamide hydrochloride]", "IC50": 70.7}, {"smiles": "Cc1cc(Nc2ncnc3[nH]ncc23)c(=O)n2c1C(=O)NC21CCCCC1", "note": "[Example 34, 8′-Methyl-6′-(1H-pyrazolo[3,4-d]pyrimidin-4-ylamino)-2′H-spiro[cyclohexane-1,3′-imidazo[1,5-a]pyridine]-1′,5′-dione hydrochloride]", "IC50": 8.1}]}]}
